Reference: US12630543B2 (priority 2019, dated 2026)

Tested on: rice blast
Assay type: cell-based
Settings: 1,000 μl of 2,000 ppm test solution on oatmeal culture medium; 8 mm rice blast disc; 25° C. for 7 days; elongation length of hyphae vs without treatment

## COc1nn(-c2ccccn2)c(F)c1C(F)(F)F [Example 2, 5-fluoro-3-methoxy-1-(2-pyridyl)-4-trifluoromethylpyrazole]
  Preventive value: 80
